This is an account of results in patent publication US8835644B2, “Broad spectrum benzothiophene-nitrothiazolide and other antimicrobials” (University of Virginia Patent Foundation, priority 2009, dated 2014).

SMILES strings stand for the structures. In brackets after ≈: the same amount, converted by molar mass. Where two headings read alike, the source gives them in different places.

Test [1] has as its system PFOR (pyruvate ferredoxin oxidoreductase). In words: Direct PFOR enzyme assay. The test is classed as biochemical. As to the method: (§1) Representative compounds of the invention were tested in a series of assays against a series of organisms as described above. […] The organisms tested include, C. difficile, H. pylori, C. jejuni, MRSA, S. epidermidis, and E. coli. S. epidermidis and E. coli were tested in the plank and biofilm assay. A disk diffusion assay was also used for C. difficile. Direct PFOR enzyme assays were also performed. All analogues and derivatives were not tested on every organism in every type of assay (the “-” in each table means that it was not tested).

Test [2] concerns MRSA. Description: MIC testing by broth dilution, MRSA. The test is classed as cell-based, Staphylococcus aureus. An outline of the steps: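 Values are broth-dilution MICs, defined as the well showing no growth on visual reading after 24 h; the tested range was 32 to 0.06 μg/ml, in organism-specific media (LB, Trypticase Soy, Brain Heart Infusion). The C. difficile entries come instead from anaerobic Kirby-Bauer disk zones, normalised to NTZ.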
Background: Dilution methods test growth across graded concentrations, often in twofold steps.

Test [3] has as its system C. jejuni. Description: MIC testing by broth dilution, C. jejuni. The test is classed as cell-based, Campylobacter jejuni. An outline of the steps: (§2)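 Planktonic E. coli (LB) and S. epidermidis (Trypticase Soy), plus C. jejuni (Brain Heart Infusion), were exposed to a dilution series starting at 32 μg/ml. The C. difficile values are anaerobic zone ratios against NTZ.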
In test [4] the test system is H. pylori. Description: MIC testing by broth dilution, H. pylori. The test is classed as cell-based, Helicobacter pylori. A digest of the protocol:
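Helicobacter pylori was tested using a standard broth dilution method in 96 well microplates, each well holding a standard dilution of the organism in 100 microliters of Brain Heart Infusion. Compounds started at 32 μg/ml in 200 microliters in the first well and were serially diluted from 32 to 0.06. Wells were read visually at 24 h, and the MIC was the well with no growth.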

The test system of test [5] is E. coli. Description: MIC testing by broth dilution, E. coli plank. The test is classed as cell-based, Escherichia coli. An outline of the steps:
as §2

Test [6] relates to E. coli biofilm. Description: E. coli biofilm assay (activity tables). The test is classed as cell-based, Escherichia coli. A digest of the protocol: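 E. coli strain 042 inoculated 1:100 with NTZ-containing medium and grown statically at 37 °C for 24 h. Growth measured by turbidity or plate counts (cfu/ml); biofilm stained with 0.5% crystal violet and read at 570 nm; triplicate, mean ± SD.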

The test system of test [7] is C. difficile. Description: MIC by agar dilution, C. difficile. The test is classed as cell-based, Clostridium difficile. As to the method: A standard broth dilution protocol was used in 96 well microplates containing a standard dilution of the microorganism to be tested in 100 microliters of the appropriate medium. Appropriate medium: E. coli, LB medium; Staphylococcus strains, Trypticase Soy; and for H. pylori and C. jejuni, Brain Heart Infusion. The compounds to be tested were set at 32 μg/ml in 200 microliters in well one and then serially diluted to provide a range from 32 to 0.06. The wells were scored visually at 24 h. The well where there was no growth was recorded as the MIC. […]
as §1
Background: In agar dilution, organisms are placed on agar that contains the substance at set levels.

Test [8] relates to C. difficile. In words: Disk diffusion (Kirby Bower), C. difficile. The test is classed as cell-based, Clostridium difficile. The conditions noted are these: for Disk Diff (%) C. difficile: Nitazoxanide = 100; for Disk Diffusion (%) C. difficile: zone of inhibited growth as relative ratio to the zone for NTZ. An outline of the steps: as §2
Background: In agar diffusion tests the substance spreads into inoculated agar from a disc or well.

Test [9] concerns S. epidermidis. In words: MIC testing by broth dilution, S. epidermidis plank. The test is classed as cell-based, Staphylococcus epidermidis. A digest of the protocol: as §2
Test [10] concerns S. epidermidis biofilm. In words: S. epidermidis biofilm assay (activity tables). The test is classed as cell-based, Staphylococcus epidermidis. An outline of the steps:
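Overnight TSB cultures diluted to OD600 0.01 and grown static with compound (triplicate) at 37° C for 16 h; turbidity recorded for growth. Biofilm: washed wells ethanol-fixed, stained with 0.5% crystal violet, A570 read before and after 95% ethanol extraction; mean ± SD.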

Where [11] appears, read: broth dilution, Trypticase Soy, 24 h, read-out: MIC (μM) MRSA.
[12] abbreviates: broth dilution, Brain Heart Infusion, 24 h, read-out: MIC (μM) C. jejuni.
Where [13] appears, read: broth dilution, Trypticase Soy, 24 h, read-out: MIC (μM) S. epidermidis Plank.
Setting [14] is: broth dilution, Brain Heart Infusion, 24 h, read-out: MIC (μM) H. pylori.
[15] abbreviates: broth dilution, LB medium, 24 h, read-out: MIC (μM) E. coli Plank.
Setting [16] is: biofilm, read-out: MIC (μM) E. coli Biofilm.
The mark [17] stands for this setting: agar dilution, anaerobic, Wilkins Chalgrin agar, read-out: MIC (μM) C. difficile.

For the compound `O=C(Nc1ncc([N+](=O)[O-])s1)c1ccoc1` [VPC16a1006, N-(5-Nitrothiazol-2-yl)furan-3-carboxamide], in [1] (Furan analogues table), the “PFOR inhibition relative to nitazoxanide (=100)” value turned out to be 98%. Besides, the MIC in [2] (Staphylococcus aureus, MRSA, Furan analogues table, read-out: MIC MRSA) came to 50.2 µM (≈ 12 µg/mL); in test [3] (Campylobacter jejuni, Furan analogues table, read-out: MIC C. jejuni), 12.5 µM (≈ 2.99 µg/mL); in [4] (Helicobacter pylori, Furan analogues table, read-out: MIC H. pylori) it was 0.8 µM (≈ 0.191 µg/mL); in test [5] (Escherichia coli, planktonic, Furan analogues table, read-out: MIC E. coli Plank) it was 134 µM (≈ 32 µg/mL); in test [6] (Escherichia coli, biofilm, Furan analogues table, read-out: MIC E. coli Biofilm), 134 µM (≈ 32 µg/mL); in [7] (Clostridioides difficile, Furan analogues table, read-out: MIC C. difficile), 33.4 µM (≈ 7.99 µg/mL). The “Disk Diff (%) C. difficile” value in test [8] (Furan analogues table) was determined as 97 ± 3%.

On to `CCCCCC(=O)Nc1ncc([N+](=O)[O-])s1` [VPC16a1007, N-(5-Nitrothiazol-2-yl)hexanamide], for which, in test [1], the “PFOR inhibition relative to nitazoxanide (=100)” value worked out at 123%. The MIC in [3] (Campylobacter jejuni, broth dilution, Brain Heart Infusion, 24 h, read-out: MIC (μM) C. jejuni) worked out at 5.5 µM (≈ 1.34 µg/mL); in [9] (Staphylococcus epidermidis, broth dilution, Trypticase Soy, 24 h, read-out: MIC (μM) S. epidermidis Plank), 32.9 µM (≈ 8 µg/mL); in test [4] (Helicobacter pylori, broth dilution, Brain Heart Infusion, 24 h, read-out: MIC (μM) H. pylori) it was 1.4 µM (≈ 0.341 µg/mL); in test [5] (Escherichia coli, broth dilution, LB medium, 24 h, read-out: MIC (μM) E. coli Plank) it was 132 µM (≈ 32 µg/mL); in [6] (Escherichia coli, read-out: MIC (μM) E. coli Biofilm) it was 132 µM (≈ 32 µg/mL); in [7] (Clostridioides difficile, agar dilution, anaerobic, Wilkins Chalgrin agar, read-out: MIC (μM) C. difficile) it was 65.8 µM (≈ 16 µg/mL). Further, the “Disk Diffusion (%) C. difficile” value in test [8] is recorded as 56.5 ± 0.5%.

As for `O=C(Nc1ncc([N+](=O)[O-])s1)C1CCCCC1` [VPC16a1010], the “PFOR inhibition relative to nitazoxanide (=100)” value in test [1] is on record as 93%. For the same compound, the MIC in test [2] (setting [11]) amounted to 125.2 µM (≈ 32 µg/mL); in [3] (setting [12]), 11.4 µM (≈ 2.91 µg/mL); in test [9] (setting [13]) it was 31.3 µM (≈ 7.99 µg/mL); in [4] (setting [14]), 0.7 µM (≈ 0.179 µg/mL); in [5] (setting [15]) it was 125.2 µM (≈ 32 µg/mL); in test [6] (setting [16]) it was 31.3 µM (≈ 7.99 µg/mL). Besides, the MIC in test [7] (setting [17]) stood at 62.6 µM (≈ 16 µg/mL). Also, the “Disk Diffusion (%) C. difficile” value in test [8] came to 53 ± 3%.

As to `COc1cc([N+](=O)[O-])ccc1C(=O)Nc1ncc([N+](=O)[O-])s1` [VPC161093], the “PFOR inhibition relative to nitazoxanide (=100)” value in test [1] is reported as 115%. Besides, the MIC was determined as 98.7 µM (≈ 32 µg/mL) in [2] (setting [11]); 9.3 µM (≈ 3.02 µg/mL) in test [3] (setting [12]); 12.3 µM (≈ 3.99 µg/mL) in test [9] (setting [13]); 0.6 µM (≈ 0.195 µg/mL) in test [4] (setting [14]); 98.7 µM (≈ 32 µg/mL) in test [5] (setting [15]); 98.7 µM (≈ 32 µg/mL) in test [6] (setting [16]). Besides, in test [7] (setting [17]), the MIC came out at 98.7 µM (≈ 32 µg/mL). The “MIC (μM) S. epidermidis Biofilm” value in test [10] was 12.3 µM (≈ 3.99 µg/mL).

As to `O=C(Nc1ncc([N+](=O)[O-])s1)c1sc2cc(F)ccc2c1Cl` [VPC161115], the “PFOR inhibition relative to nitazoxanide (=100)” value in test [1] (Thiophene analogues table) turned out to be 96%. Moreover, the MIC came out at 2.1 µM (≈ 0.751 µg/mL) in test [2] (Thiophene analogues table, read-out: MIC MRSA); 5.6 µM (≈ 2 µg/mL) in [3] (Thiophene analogues table, read-out: MIC C. jejuni); 5.6 µM (≈ 2 µg/mL) in test [9] (planktonic, Thiophene analogues table, read-out: MIC S. epidermidis Plank); 1.0 µM (≈ 0.358 µg/mL) in test [4] (Thiophene analogues table, read-out: MIC H. pylori); 89.4 µM (≈ 32 µg/mL) in test [5] (planktonic, Thiophene analogues table, read-out: MIC E. coli Plank); 5.6 µM (≈ 2 µg/mL) in test [6] (biofilm, Thiophene analogues table, read-out: MIC E. coli Biofilm). For the same compound, the MIC in test [7] (Thiophene analogues table, read-out: MIC C. difficile) is 11.2 µM (≈ 4.01 µg/mL). Further, in test [8] (Thiophene analogues table), the “Disk Diff (%) C. difficile” value is 44%. Also, the “MIC S. epidermidis Biofilm” value in test [10] (Thiophene analogues table) amounted to 0.1 µM (≈ 0.0358 µg/mL).
